From patent US20200237705A1, “METHOD TO TREAT ANTIMICROBIAL RESISTANT CANDIDA” (Hennepin Life Sciences, LLC, priority 2017, published 2020)

Tests used:
[1] = test system: C. albicans, C. glabrata, C. krusei, C. parapsilosis, and C. pseudotropicalis; conditions: in vitro; Strandberg et al. 2010; cited from earlier work
[2] = test system: C. auris; test: Killing of C. auris clinical isolates by GML alone in Todd Hewitt growth medium (plate counts); format: cell-based, Candida auris; conditions: two clinical isolates, 37° C., by 8 hours' incubation, limit of detection 10 CFUs/ml
From the text: In a first study performed was to test the ability of GML alone to kill two recent clinical isolates of C. auris (FIG. 1). […] The lower limit of detection of Candida is 10 CFUs/ml for these studies.

[3] = test system: Candida; conditions: women of menstrual age; Strandberg et al. 2010; cited from earlier work

Substance: Glycerol monolaurate [GML]
- Ability to kill selected Candida species [1]: ability to kill selected Candida species
- GML concentrations at which C. auris is killed (significant killing defined as ≥3 logs killing) [2]: ≥ 50 μg/ml
- Numbers of Candida vaginally in women [3]: can reduce the numbers of Candida vaginally
